From patent EP0375449B1, “Benzopyran-type compounds” (BEECHAM GROUP PLC, priority 1988, dated 1990)
pIC50: −log10 of the molar value.

How the values were obtained:
[1] = test system: Spontaneously hypertensive rats; assay: Antihypertensive activity: systolic blood pressure by tail cuff method; assay type: in vivo; conditions: maximum at 1-4 hours post dose
Description: Systolic blood pressures were recorded by a modification of the tail cuff method described by I.M. Claxton, M.G. Palfreyman, R.H. Poyser, R.L. Whiting, European Journal of Pharmacology, 37, 179 (1976). A W+W BP recorder, model 8005 was used to display pulses. Prior to all measurements rats were placed in a heated environment (33.5 ± 0.5 °C) before transfer to a restraining cage. Each determination of blood pressure was the mean of at least 5 readings. Spontaneously hypertensive rats (ages 12-18 weeks) with systolic blood pressures >180 mmHg were considered hypertensive.

[2] = test system: trachea; assay: Bronchodilator activity: relaxation of isolated tracheal spirals; assay type: tissue-based, guinea pigs; conditions: Cavia porcellus; fall in resting tension as percentage of total relaxation evoked by 10⁻³M isoprenaline; guinea pig tracheal spirals, Krebs solution 37°C; read-out: IC₅₀
Description: Male guinea pigs (300-600g) were stunned by a blow to the head and bled from the carotid artery. The trachea was exposed, dissected free of connective tissue, and transferred to oxygenated Krebs solution at 37 °C. Next, spirals (2 per trachea) were prepared by cutting the whole trachea spirally along its longitudinal axis and then dividing this spiral lengthwise. Each preparation was mounted, using silk thread, in a 10ml organ bath filled with krebs solution at 37 °C and bubbled with 5% CO₂ with O₂. The resting tension of the preparations was set at 2g and changes in muscle tension were monitored isometrically by means of a UFI (2oz) force and displacement transducer (Ormed Ltd) connected to a Linseis pen recorder. All preparations were allowed to equilibrate for 60 minutes. During this equilibration period the preparations were washed by upward displacement at 15 minute intervals and, if necessary, the resting tension was readjusted to 2g using a mechanical micromanipulator system.
Once a steady resting tension had been obtained, the preparations were dosed simultaneously with the test compound (10⁻⁸-2x10⁻⁵M), and finally a maximum relaxation achieved by addition of 10⁻³M isoprenaline. The fall in tension evoked by the test compound was expressed as a percentage of the total relaxation evoked in the presence of 10⁻³ isoprenaline. […]

In the case of CC(C)NC(=O)N[C@H]1[C@H](O)c2cc(C#N)ccc2OC1(C)C (relative stereo) [Example E14, trans-6-Cyano-2,2-dimethyl-3,4-dihydro-3-(isopropylureido)-2H-1-benzopyran-4-ol], the “% b.p. fall” value ([1]; Dose 0.3 mg/kg) was 22%.

In the case of CC(C)(C)C(=O)N[C@H]1[C@H](O)c2cc(C#N)ccc2OC1(C)C (relative stereo) [Example E21, trans-6-Cyano-2,2-dimethyl-3,4-dihydro-3-trimethylacetylamino-2H-1-benzopyran-4-ol], the “% b.p. fall” value ([1]; Dose 1.0 mg/kg) was 36%.

For CC(C)(C)OC(=O)N[C@H]1[C@H](O)c2cc(C#N)ccc2OC1(C)C (relative stereo) [Example E1, trans-6-Cyano-2,2-dimethyl-3,4-dihydro-3-(t-butoxycarbonyl)amino-2H-1-benzopyran-4-ol], the “% b.p. fall” value ([1]; Dose 3.0 mg/kg) was 30%.

In the case of CC(C)(C)NC(=O)N[C@H]1[C@H](O)c2cc(C#N)ccc2OC1(C)C (relative stereo) [Example E5, trans-6-Cyano-2,2-dimethyl-3,4-dihydro-3-(t-butylureido)-2H-1-benzopyran-4-ol], the “% b.p. fall” value ([1]; Dose 0.3 mg/kg) was “≧40%” and the pIC50 [2] was 5.55.

For CC1(C)Oc2ccc(C#N)cc2[C@@H](O)[C@@H]1NC(=O)c1ccc(F)cc1 (relative stereo) [Example E3, trans-6-Cyano-2,2-dimethyl-3,4-dihydro-3-(4-fluorobenzoylamino)-2H-1-benzopyran-4-ol], the “% b.p. fall” value ([1]; Dose 3.0 mg/kg) was 42%.
